US20140256756A1, “PIPERIDINYL-SUBSTITUTED LACTAMS AS GPR119 MODULATORS” (Array BioPharma Inc., priority 2011, published 2014)

Test system: modified version of the GPR119 receptor (94% identity to human receptor)
Assay: cAMP production assay (LANCE cAMP kit, TR-FRET) in HEK-293 cells
Type: cell-based
Conditions: for cAMP production in HEK-293 cells: HEK-293 cells stably expressing modified GPR119, test compounds 0.2 nM to 10 μM, one-hour incubation; for Fold over baseline: increase in cAMP relative to basal levels, agonist activity if 1.5-fold or greater
Procedure: The assay utilized HEK-293 cells that stably express a modified version of the GPR119 receptor (94% identity to human receptor), under the control of a CMV promoter containing a tet-on element for tetracycline-inducible expression. GPR119 agonist-induced cyclic AMP (cAMP) production was measured in this cell line using the LANCE cAMP kit (Perkin Elmer, Waltham, Mass.). To generate a working stock of cells for the assay, cells were treated overnight with 1 μg/mL doxycycline at 37° C. in the presence of 5% CO2 to induce receptor expression. Cells were then harvested by enzymatic dissociation with 0.05% trypsin, resuspended in freezing medium (DMEM growth medium with 10% each of fetal bovine serum and DMSO), aliquoted and frozen at −80° C. On the day of the assay, frozen cells were thawed, washed 1× in PBS and resuspended in Hank's buffered salt solution (HBSS) containing 5 mM HEPES, 0.1% BSA and Alexa Fluor 647-conjugated anti-cAMP antibody (diluted 1:100). The cell suspension was then transferred to a Proxiplate Plus white 384-well assay plate (Perkin-Elmer) at 2000 cells/well. Test compounds at final concentrations ranging from 0.2 nM to 10 μM were added to the assay plate, followed by a one-hour incubation at ambient temperature (volume=10 μL/well). DMSO concentration was held constant at 0.5%. After incubation with test compounds, 10 μL, of a detergent buffer containing a biotinylated cAMP/Europium-conjugated streptavidin complex (Europium-labeled cAMP tracer) were added to each well on the assay plate, followed by a 2-hour incubation at ambient temperature. During this incubation cAMP released from lysed cells competes with the Europium-labeled cAMP tracer for binding to the Alexa Fluor 647-conjugated antibody. […] Cellular cAMP levels were then determined by interpolation of raw signal data using a cAMP standard curve. Compounds were determined to have agonist activity if they stimulated a 1.5-fold or greater increase in cAMP relative to basal levels.

| SMILES | cAMP production in HEK-293 cells [nmol] | Fold over baseline |
| --- | --- | --- |
| CS(=O)(=O)c1ccc(N[C@H]2CCN(C3CCN(c4nc(-c5ccccc5)ns4)CC3)C2=O)c(F)c1 [Example 24, (S)-3-(2-fluoro-4-(methylsulfonyl)phenylamino)-1-(1-(3-phenyl-1,2,4-thiadiazol-5-yl)piperidin-4-yl)pyrrolidin-2-one] | 9.7 | 2.6 |
| CS(=O)(=O)c1ccc(N[C@H]2CCN(C3CCN(c4nc([C@H](O)CO)ns4)CC3)C2=O)c(F)c1 [Example 25, (S)-1-(1-(3-((S)-1,2-dihydroxyethyl)-1,2,4-thiadiazol-5-yl)piperidin-4-yl)-3-(2-fluoro-4-(methylsulfonyl)phenylamino)pyrrolidin-2-one] | 8.3 | 2.1 |
| CC(C)c1nsc(N2CCC(N3CC[C@H](N(C)c4cc(F)c(S(C)(=O)=O)cc4F)C3=O)CC2)n1 [Example 26, (S)-3-((2,5-Difluoro-4-(methylsulfonyl)phenyl)(methyl)amino)-1-(1-(3-isopropyl-1,2,4-thiadiazol-5-yl)piperidin-4-yl)pyrrolidin-2-one] | 17.2 | 3.9 |
| CC(C)c1nsc(N2CCC(N3CCC[C@H](Nc4ccc(S(C)(=O)=O)cc4F)C3=O)CC2)n1 [Example 27, (S)-3-(2-fluoro-4-(methylsulfonyl)phenylamino)-1′-(3-isopropyl-1,2,4-thiadiazol-5-yl)-[1,4′-bipiperidin]-2-one] | 17.5 | 3.0 |
| CC(C)Cc1nsc(N2CCC(N3CCC[C@H](Nc4ccc(S(C)(=O)=O)cc4F)C3=O)CC2)n1 [Example 28, (S)-3-(2-fluoro-4-(methylsulfonyl)phenylamino)-1′-(3-isobutyl-1,2,4-thiadiazol-5-yl)-[1,4′-bipiperidin]-2-one] | 11.6 | 2.3 |
| CS(=O)(=O)c1ccc(N[C@H]2CCCN(C3CCN(c4nc(-c5ccccc5)ns4)CC3)C2=O)c(F)c1 [Example 29, (S)-3-(2-fluoro-4-(methylsulfonyl)phenylamino)-1′-(3-phenyl-1,2,4-thiadiazol-5-yl)-[1,4′-bipiperidin]-2-one] | 7.3 | 2.2 |
| CC(C)(C)c1nsc(N2CCC(N3CCC[C@H](Nc4ccc(S(C)(=O)=O)cc4F)C3=O)CC2)n1 [Example 30, (S)-1′-(3-tert-butyl-1,2,4-thiadiazol-5-yl)-3-(2-fluoro-4-(methylsulfonyl)phenylamino)-[1,4′-bipiperidin]-2-one] | 13.9 | 2.8 |
| CC(C)(C)c1nsc(N2CCC(N3CCC[C@H](Nc4c(F)cc(S(C)(=O)=O)cc4F)C3=O)CC2)n1 [Example 31] | 7.6 | 1.9 |
| CSc1ccc(OC2CCN(C3CCN(c4nc(C(C)C)ns4)CC3)C2=O)cc1 (stereo not shown) [Example 32, 1-(1-(3-Isopropyl-1,2,4-thiadiazol-5-yl)piperidin-4-yl)-3-(4-(methylthio)phenoxy)pyrrolidin-2-one] | 17.8 | 2.7 |
| CC(C)c1nsc(N2CCC(N3CCC(Oc4ccc(Br)cc4F)C3=O)CC2)n1 (stereo not shown) [Example 33, 3-(4-bromo-2-fluorophenoxy)-1-(1-(3-isopropyl-1,2,4-thiadiazol-5-yl)piperidin-4-yl)pyrrolidin-2-one] | 16.9 | 2.7 |
| CC(C)(C)c1nsc(N2CCC(N3CC[C@H](Oc4cc(F)c(S(C)(=O)=O)cc4F)C3=O)CC2)n1 [Example 34, (S)-1-(1-(3-tert-butyl-1,2,4-thiadiazol-5-yl)piperidin-4-yl)-3-(2,5-difluoro-4-(methylsulfonyl)phenoxy)pyrrolidin-2-one] | 29.2 | 4.5 |
| CC(C)(C)c1nsc(N2CCC(N3CC[C@H](Oc4ccc(S(C)(=O)=O)cc4F)C3=O)CC2)n1 [Example 35, (S)-1-(1-(3-tert-butyl-1,2,4-thiadiazol-5-yl)piperidin-4-yl)-3-(2-fluoro-4-(methylsulfonyl)phenoxy)pyrrolidin-2-one] | 26.1 | 3.7 |
| CC(C)(C)c1nsc(N2CCC(N3CC[C@H](Oc4c(F)cc(S(C)(=O)=O)cc4F)C3=O)CC2)n1 [Example 36, (S)-1-(1-(3-tert-butyl-1,2,4-thiadiazol-5-yl)piperidin-4-yl)-3-(2,6-difluoro-4-(methylsulfonyl)phenoxy) pyrrolidin-2-one] | 23.2 | 4.1 |
| CC(C)(C)c1nsc(N2CCC(N3CC[C@H](Nc4ccc(S(C)(=O)=O)cc4F)C3=O)CC2)n1 [Example 37, (S)-1-(1-(3-tert-butyl-1,2,4-thiadiazol-5-yl)piperidin-4-yl)-3-(2-fluoro-4-(methylsulfonyl)phenyl-amino)pyrrolidin-2-one] | 20.9 | 3.2 |
| COC(C)(C)c1nsc(N2CCC(N3CC[C@H](Oc4ccc(S(C)(=O)=O)cc4F)C3=O)CC2)n1 [Example 38, (S)-3-(2-fluoro-4-(methylsulfonyl)phenoxy)-1-(1-(3-(2-methoxypropan-2-yl)-1,2,4-thiadiazol-5-yl)piperidin-4-yl)pyrrolidin-2-one] | 42.1 | 6.6 |
| COC(C)(C)c1nsc(N2CCC(N3CC[C@H](Oc4cc(F)c(S(C)(=O)=O)cc4F)C3=O)CC2)n1 [Example 39, (S)-3-(2,5-difluoro-4-(methylsulfonyl)phenoxy)-1-(1-(3-(2-methoxypropan-2-yl)-1,2,4-thiadiazol-5-yl)piperidin-4-yl)pyrrolidin-2-one] | 22.4 | 3.7 |
| COC(C)(C)c1nsc(N2CCC(N3CC[C@H](Oc4c(F)cc(S(C)(=O)=O)cc4F)C3=O)CC2)n1 [Example 40, (S)-3-(2,6-difluoro-4-(methylsulfonyl)phenoxy)-1-(1-(3-(2-methoxypropan-2-yl)-1,2,4-thiadiazol-5-yl)piperidin-4-yl)pyrrolidin-2-one] | 21.1 | 3.9 |
| COC(C)(C)c1nsc(N2CCC(N3CC[C@H](Nc4ccc(S(C)(=O)=O)cc4F)C3=O)CC2)n1 [Example 41, (S)-3-(2-fluoro-4-(methylsulfonyl)phenyl-amino)-1-(1-(3-(2-methoxypropan-2-yl)-1,2,4-thiadiazol-5-yl)piperidin-4-yl)pyrrolidin-2-one] | 8.1 | 2.0 |
| CS(=O)(=O)c1ccc(O[C@H]2CCN(C3CCN(c4nc(-n5cccn5)ns4)CC3)C2=O)c(F)c1 [Example 42, (S)-1-(1-(3-(1H-pyrazol-1-yl)-1,2,4-thiadiazol-5-yl)piperidin-4-yl)-3-(2-fluoro-4-(methylsulfonyl)phenoxy)pyrrolidin-2-one] | 12.0 | 2.5 |
| Cc1nnc(-c2ccc(O[C@H]3CCN(C4CCN(c5nc(C(C)C)ns5)CC4)C3=O)c(F)c2)o1 [Example 43, (S)-3-(2-fluoro-4-(5-methyl-1,3,4-oxadiazol-2-yl)phenoxy)-1-(1-(3-isopropyl-1,2,4-thiadiazol-5-yl)piperidin-4-yl)pyrrolidin-2-one] | 29.4 | 7.4 |
